Results as given in ChEMBL document CHEMBL3044763, “Inhibitory Activities of Rhodanine Derivatives on Plant Growth” (Biosci Biotechnol Biochem, 1996).

Columns and labels:
[1] = test system: Brassica rapa subsp. oleifera; test: Growth inhibition of Brassica rapa subsp. oleifera assessed as total chlorophyll level at 1 x 10^-4 M after 7 days; type: functional; parameters: scale not given: the % may be the effect or the level left
[2] = Toxicity in Mus musculus ddY (mouse) assessed as mortality at 6 mg/kg, ip after 1 day; type: organism-based; parameters: dose 6 mg/kg, route intraperitoneal; conditions: in vivo
[3] = Toxicity in Mus musculus ddY (mouse) assessed as mortality at 6 mg/kg, ip after 3 days; type: organism-based; parameters: dose 6 mg/kg, route intraperitoneal; conditions: in vivo
[4] = test system: Brassica rapa subsp. oleifera; test: Growth inhibition of Brassica rapa subsp. oleifera assessed as chlorophyll b level at 1 x 10^-4 M after 7 days; type: functional; parameters: scale not given: the % may be the effect or the level left
[5] = Toxicity in Mus musculus ddY (mouse) assessed as mortality at 7 mg/kg, ip after 5 days; type: organism-based; parameters: dose 7 mg/kg, route intraperitoneal; conditions: in vivo
[6] = Toxicity in Mus musculus ddY (mouse) assessed as mortality at 8 mg/kg, ip after 1 day; type: organism-based; parameters: dose 8 mg/kg, route intraperitoneal; conditions: in vivo
[7] = Toxicity in Mus musculus ddY (mouse) assessed as mortality at 6 mg/kg, ip after 7 days; type: organism-based; parameters: dose 6 mg/kg, route intraperitoneal; conditions: in vivo
[8] = Toxicity in Mus musculus ddY (mouse) assessed as mortality at 3 mg/kg, ip after 1 day; type: organism-based; parameters: dose 3 mg/kg, route intraperitoneal; conditions: in vivo
[9] = Toxicity in Mus musculus ddY (mouse) assessed as mortality at 3 mg/kg, ip after 2 days; type: organism-based; parameters: dose 3 mg/kg, route intraperitoneal; conditions: in vivo
Daucus carota [10] = test: Growth inhibition of Daucus carota (carrot) assessed as root growth at 1 x 10^-4 M after 7 days; type: functional
[11] = Toxicity in Mus musculus ddY (mouse) assessed as mortality at 5 mg/kg, ip after 6 days; type: organism-based; parameters: dose 5 mg/kg, route intraperitoneal; conditions: in vivo
[12] = Toxicity in Mus musculus ddY (mouse) assessed as mortality at 4 mg/kg, ip after 6 days; type: organism-based; parameters: dose 4 mg/kg, route intraperitoneal; conditions: in vivo
[13] = test system: Brassica rapa subsp. oleifera; test: Growth inhibition of Brassica rapa subsp. oleifera assessed as root growth at 3 x 10^-5 M after 7 days; type: functional
[14] = Toxicity in Mus musculus ddY (mouse) assessed as mortality at 7 mg/kg, ip after 2 days; type: organism-based; parameters: dose 7 mg/kg, route intraperitoneal; conditions: in vivo
[15] = Toxicity in Mus musculus ddY (mouse) assessed as mortality at 4 mg/kg, ip after 4 days; type: organism-based; parameters: dose 4 mg/kg, route intraperitoneal; conditions: in vivo
Sesamum indicum [16] = test: Growth inhibition of Sesamum indicum (sesame) assessed as root growth at 3 x 10^-4 M after 7 days; type: functional
[17] = Toxicity in Mus musculus ddY (mouse) assessed as mortality at 5 mg/kg, ip after 3 days; type: organism-based; parameters: dose 5 mg/kg, route intraperitoneal; conditions: in vivo
Sesamum indicum [18] = test: Growth inhibition of Sesamum indicum (sesame) assessed as root growth at 1 x 10^-5 M after 7 days; type: functional
[19] = Toxicity in Mus musculus ddY (mouse) assessed as mortality at 5 mg/kg, ip after 1 day; type: organism-based; parameters: dose 5 mg/kg, route intraperitoneal; conditions: in vivo
[20] = Toxicity in Mus musculus ddY (mouse) assessed as mortality at 4 mg/kg, ip after 7 days; type: organism-based; parameters: dose 4 mg/kg, route intraperitoneal; conditions: in vivo
Echinochloa esculenta = test: Growth inhibition of Echinochloa esculenta assessed as root growth at 1 x 10^-4 M after 7 days; type: functional
[21] = Toxicity in Mus musculus ddY (mouse) assessed as mortality at 4 mg/kg, ip after 2 days; type: organism-based; parameters: dose 4 mg/kg, route intraperitoneal; conditions: in vivo
[22] = Toxicity in Mus musculus ddY (mouse) assessed as mortality at 8 mg/kg, ip after 4 days; type: organism-based; parameters: dose 8 mg/kg, route intraperitoneal; conditions: in vivo
[23] = Toxicity in Mus musculus ddY (mouse) assessed as mortality at 4 mg/kg, ip after 3 days; type: organism-based; parameters: dose 4 mg/kg, route intraperitoneal; conditions: in vivo
[24] = Toxicity in Mus musculus ddY (mouse) assessed as mortality at 7 mg/kg, ip after 6 days; type: organism-based; parameters: dose 7 mg/kg, route intraperitoneal; conditions: in vivo
Daucus carota [25] = test: Growth inhibition of Daucus carota (carrot) assessed as root growth at 3 x 10^-5 M after 7 days; type: functional
Allium tuberosum = test: Growth inhibition of Allium tuberosum assessed as root growth at 5 x 10^-5 M after 10 days; type: functional

Compound: NN1C(=O)CSC1=S [AMINORHODANINE]
- Activity [1]: 11.85%
- mortality at 24 h [2]: 60%
- mortality at 72 h [3]: 60%
- Activity [4]: 3.82%
- mortality at 120 h [5]: 80%
- mortality at 24 h [6]: 100%
- mortality at 168 h [7]: 60%
- mortality at 24 h [8]: 0%
- mortality at 48 h [9]: 0%
- Activity (Daucus carota [10]): 2.4 mm
- mortality at 144 h [11]: 60%
- mortality at 144 h [12]: 20%
- Root length [13]: 30.8 mm
- mortality at 48 h [14]: 80%
- mortality at 96 h [15]: 20%
- Activity (Sesamum indicum [16]): 0 mm
- mortality at 72 h [17]: 60%
- Activity (Sesamum indicum [18]): 6.8 mm
- mortality at 24 h [19]: 60%
- mortality at 168 h [20]: 20%
- Activity (Echinochloa esculenta): 10.8 mm
- mortality at 48 h [21]: 20%
- mortality at 96 h [22]: 100%
- mortality at 72 h [23]: 20%
- mortality at 144 h [24]: 80%
- Activity (Daucus carota [25]): 11.2 mm
- Activity (Allium tuberosum): 8.6 mm
